# Results from patent publication US7569700B2, “Substituted, bicyclic 8-pyrrolidinobenzimidazoles, methods for their production and their use as medicaments” (sanofi - aventis, priority 2005, dated 2009).
# Biological target: T1, DPP-IV from porcine kidneys (Sus scrofa, UniProt P22411)
# T1 construct: DPP-IV from porcine kidneys (Sigma, Munich); purchased Sigma, Munich; host or cells: porcine kidney (tissue-derived enzyme)
# Test: Measurement of the DPP-IV activity (fluorimetric conversion of H-Ala-Pro-AFC)
# Type: biochemical
# Conditions: at 30 μm compound; DPP-IV 1 mU/ml, H-Ala-Pro-AFC 15 μm, Tris/HCl pH 7.4, room temperature
# Method: Measurement of the DPP-IV Activity:
# DPP-IV from porcine kidneys (Sigma, Munich)
# H-Ala-Pro-AFC (Bachem, Weil am Rhein)
# DPP-IV (1 mU/ml, end concentration)
# H-Ala-Pro-AFC (15 μm end concentration) in Tris/HCl (40 mM, pH 7.4), total volume 0.2 ml
# The reaction was performed at room temperature for different periods (typically 10 minutes) and stopped at the end of the reaction by adding 20 μl of ZnCl2 (1 M). The conversion of H-Ala-Pro-AFC was determined fluorimetrically by measuring the emission at 535 nm on excitation at 405 nm. In the case of addition of inhibitors, the buffer volume added was adjusted such that a total volume of the test mixture of 200 μl was maintained.
# % inhibition at a fixed concentration was calculated as follows: (1-enzyme activityinhibited reaction/enzyme activityuninhibited reaction)×100
# T1 sequence (P22411 whole entry): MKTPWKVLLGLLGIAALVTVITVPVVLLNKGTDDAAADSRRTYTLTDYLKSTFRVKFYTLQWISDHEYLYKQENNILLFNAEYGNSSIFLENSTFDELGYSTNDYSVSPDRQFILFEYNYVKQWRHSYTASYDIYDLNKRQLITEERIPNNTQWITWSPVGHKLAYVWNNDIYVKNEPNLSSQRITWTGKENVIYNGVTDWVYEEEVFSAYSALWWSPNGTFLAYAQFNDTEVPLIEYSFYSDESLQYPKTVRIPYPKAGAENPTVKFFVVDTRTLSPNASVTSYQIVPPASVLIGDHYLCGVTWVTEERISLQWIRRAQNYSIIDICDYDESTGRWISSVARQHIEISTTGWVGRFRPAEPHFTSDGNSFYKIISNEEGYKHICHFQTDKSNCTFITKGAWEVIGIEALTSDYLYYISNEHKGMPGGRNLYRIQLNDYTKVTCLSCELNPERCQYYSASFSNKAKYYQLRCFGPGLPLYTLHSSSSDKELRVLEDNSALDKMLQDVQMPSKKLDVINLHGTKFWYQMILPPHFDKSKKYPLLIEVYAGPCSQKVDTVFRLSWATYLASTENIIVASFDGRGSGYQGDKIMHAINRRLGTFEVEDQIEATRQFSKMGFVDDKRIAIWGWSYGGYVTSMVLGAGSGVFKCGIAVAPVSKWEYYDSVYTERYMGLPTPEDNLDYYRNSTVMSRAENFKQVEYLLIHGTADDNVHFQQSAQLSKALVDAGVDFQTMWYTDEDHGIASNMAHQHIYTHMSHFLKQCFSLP
compound,measurement,value
CC(C)=CCn1c(N2CCC3CNCC32)nc2ccc(NC(=O)c3ccccc3)cc21 (stereo not shown) [Example 1],% inhibition at 30 μm,25%
